From patent US20250171400A1, “AZA-HETEROCYCLYL CARBOXAMIDE AND RELATED COMPOUNDS AND THEIR USE IN TREATING MEDICAL CONDITIONS” (X-BIOTIX THERAPEUTICS, INC., priority 2021, published 2025) come the findings set out here.

Assay [1] relates to E. coli BW25113 isogenic mutant deficient in acrA mediated efflux. Put plainly: broth microdilution minimum inhibition concentration assay. In kind it is cell-based. The following applies: Escherichia coli, BW25113, read-out: E. coli KO MIC. The protocol:
(§1) Exemplary compounds from the above Examples were tested to determine their minimum inhibitory concentration (MIC) for exemplary strains of Eschericia and Pseudomonas bacteria using broth microdilution methods. Assay procedures and results are described below.
(§2) Broth microdilution assays were conducted according to Clinical and Laboratory Standards Institute guidelines (CLSI, M07-A11: Clinical and Laboratory Standards Institute. Methods for Dilution Antimicrobial Susceptibility Tests for Bacteria that Grow Aerobically; Approved Standard—11th Edition. Wayne, PA: CLSI, 2018.). Briefly, a 0.5 McFarland standard suspension was made from bacterial isolates on non-selective, solid media. The inocula were adjusted to give a bacterial concentration of 1×10^6 CFU/mL. Serial doubling-dilutions of each compound were prepared in cation-adjusted Mueller-Hinton broth (Sigma-Aldrich) in 96-well microdilution plates. A 50 μL aliquot of the inoculum was added to each microdilution plate and, within 15 minutes, incubated at 37° C. in air for 16-20 h. […] The test was controlled by the determination of piperacillin MIC against both E. coli ATCC 25922 and P. aeruginosa ATCC 27853 and ensuring accordance with the ranges published in CLSI supplementary document M100 (CLSI, M100Ed29: Clinical and Laboratory Standards Institute. Performance Standards for Antimicrobial Susceptibility Testing, 29th Edition. Wayne, PA: CLSI, 2018.).
(§3) Multiple enterobacteriaceae strains were tested, including E. coli ATCC 25922 and K. pneumoniae ATCC 43816. WT E. coli BW25113 was tested with an isogenic mutant deficient in acrA mediated efflux by clean deletion. WT P. aeruginosa PAO1 was tested with an isogenic mutant deficient in MexA mediated efflux by clean deletion.
(§4) Experimental results are provided in Table 4, which provides MIC values for wild-type E. coli BW25113 (“E. coli WT MIC”), an isogenic mutant deficient in acrA mediated efflux by clean deletion (“E. coli KO MIC”), wild-type P. aeruginosa PAO1 (“P. aeruginosa WT MIC”), and an isogenic mutant deficient in MexA mediated efflux by clean deletion (“[…]”).
(Dilution methods test growth across graded concentrations, often in twofold steps.)

Assay [2] deals with P. aeruginosa PAO1 isogenic mutant deficient in MexA mediated efflux. Described as above. In kind it is cell-based. To be noted: Pseudomonas aeruginosa, PAO1, read-out: P. aeruginosa KO MIC. The protocol: as §1, §2, §3, §4
Assay [3] concerns wild-type E. coli BW25113. The description is as above. The class given is cell-based. To be noted: Escherichia coli; wild-type E. coli BW25113, 37° C. 16-20 h; read-out: E. coli WT MIC. The protocol: as §1, §2, §3, §4
Assay [4] relates to wild-type P. aeruginosa PAO1. Described as above. The class given is cell-based. To be noted: Pseudomonas aeruginosa. The method, then: as §1, §2, §3, §4
The next assay concerns the target E. coli LpxC (Escherichia coli (strain K12), UniProt P0A725). Put plainly: in vitro substrate deacetylation assay for inhibition of LpxC (ADDA analysis). The following applies: 5 nM E. coli LpxC, 2.5 μM substrate, 1 hour at room temperature. In kind it is biochemical. The method, then:
(§5) Exemplary compounds from the above Examples were tested for ability to inhibit LpxC activity using an in vitro substrate deacetylation assay with ADDA™ analysis. Assay procedures and results are described below.
Dilutions of test compound were pre-incubated with 5 nM P. aeruginosa or E. coli LpxC for 10 minutes at room temperature in 50 mM NaH2PO4, 500 mM sucrose, 0.2 mg/mL BSA, pH 7.2 and <1% DMSO. Reactions were initiated by the addition of 2× substrate (UDP-3-O—(R-3-hydroxydecanoyl)-N-acetylglucosamine, Carbosynth Ltd, UK, for P. aeruginosa LpxC and UDP-3-O—(R-3-hydroxymyristoyl)-N-acetylglucosamine, BOC Sciences, USA, for E. coli LpxC), in 50 mM NaH2PO4, 0.5 mg/mL BSA, pH 7.2, to a final concentration of 2.5 μM. Reactions proceeded for 1 hour at room temperature prior to quenching with and equal volume of 2% acetic acid.
For ADDA™ analysis, an aliquot of assay sample was withdrawn from each well of the 384-well plate and applied to a Hypercarb cartridge (Optimize Technologies, USA) under conditions designed to retain analytes of interest. Analytes were eluted using 1:1:2 acetone:acetonitrile:water containing 5 mM ammonium acetate then analysed by triple-quadrupole mass spectrometry. Mass spectrometry was carried out using electrospray ionization in negative ion mode. Daughter ion peaks representing detected substrate (P. aeruginosa: parent Q1 mass=775.8 amu, daughter Q3 mass=384.7 amu E. coli: parent Q1 mass=833.0 amu, daughter Q3 mass=385.0 amu, collision energy=analyte specific, dwell time=50 ms) were identified using a multiple-reaction monitoring protocol.
Total activity (0% inhibition) was obtained from reactions containing no compound, and 100% inhibition is defined as reactions in the presence of 1 μM CHIR-090 (N-[(1S,2R)-2-hydroxy-1-[(hydroxyamino)carbonyl]propyl]-4-[2-[4-(4-morpholinylmethyl)phenyl]ethynyl]-benzamide). For IC50 determinations, peak areas of the substrate and product were compared to compute the proportion of substrate reacted by the LpxC enzyme at each compound concentration. The fractional activity was converted to percentage inhibition and plotted against compound concentration in ActivityBase™ and fit using a four-parameter logistic using non-linear regression to yield the IC50 value.

In a further assay the target is P. aeruginosa LpxC (Pseudomonas aeruginosa (strain ATCC 15692 / DSM 22644 / CIP 104116 / JCM 14847 / LMG 12228 / 1C / PRS 101 / PAO1), UniProt P47205). Briefly: biochemical. In kind it is biochemical. To be noted: 5 nM P. aeruginosa LpxC, 2.5 μM substrate, 1 hour at room temperature. The protocol: as §5
For ADDA™ analysis, an aliquot of assay sample was withdrawn from each well of the 384-well plate and applied to a Hypercarb cartridge (Optimize Technologies, USA) under conditions designed to retain analytes of interest. Analytes were eluted using 1:1:2 acetone:acetonitrile:water containing 5 mM ammonium acetate then analysed by triple-quadrupole mass spectrometry. Mass spectrometry was carried out using electrospray ionization in negative ion mode.
For IC50 determinations, peak areas of the substrate and product were compared to compute the proportion of substrate reacted by the LpxC enzyme at each compound concentration.

The mark [5] stands for this setting: PAO1, read-out: P. aeruginosa WT MIC.
The mark [6] stands for this setting: wild-type P. aeruginosa PAO1, 37° C. 16-20 h, read-out: P. aeruginosa WT MIC.

Converted amounts (≈) assume the structure as drawn. Like-named read-outs stand apart in the source and are kept apart here.

E. coli LpxC, sequence (P0A725 whole entry): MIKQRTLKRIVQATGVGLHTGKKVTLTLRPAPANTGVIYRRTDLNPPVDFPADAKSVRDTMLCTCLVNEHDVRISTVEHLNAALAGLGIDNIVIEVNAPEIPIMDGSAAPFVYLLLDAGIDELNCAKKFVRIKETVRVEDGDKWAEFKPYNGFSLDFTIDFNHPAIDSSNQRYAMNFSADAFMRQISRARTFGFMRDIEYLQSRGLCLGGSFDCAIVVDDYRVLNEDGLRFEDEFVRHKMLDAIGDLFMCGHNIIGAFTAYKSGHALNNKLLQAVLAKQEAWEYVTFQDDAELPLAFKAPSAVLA

Usually MIC stands for the lowest concentration that inhibits growth of the organism. For the compound `CC(C)C(=O)N1C[C@H](NC(=O)[C@@H]2C[C@H](O)CN2)C[C@@H]1C(=O)NCc1ccc(C#CC#CC2CC2)cc1` [Example 9U], the MIC in assay [1] is above 100 µM; in assay [2] it was 20 to 100 µM (≈ 9.81 to 49.1 µg/mL); in assay [3], above 100 µM; in assay [4] (setting [5]), above 100 µM.
By IC50 is commonly meant the point on the concentration scale where inhibition reaches its midpoint. Read a low IC50 as greater potency. On to `CC(C)C(=O)N1C[C@H](NC(=O)[C@@H]2C[C@H](F)CN2)C[C@@H]1C(=O)NCc1ccc(C#CC2CC2)cc1` [Example 9BG], for which the IC50 against E. coli LpxC is above 10000 nM; against P. aeruginosa LpxC it was 100 to 1000 nM. In addition, the MIC in assay [1], in assay [2], in assay [3] and in assay [4] (setting [5]) was above 100 µM throughout.
Take `C[C@H](CN)C(=O)N1C[C@H](NC(=O)[C@@H]2C[C@H](F)CN2)C[C@@H]1C(=O)NCc1ccc(C#CC#CC2CC2)cc1` [Example 9N]: the IC50 at E. coli LpxC lay within 500 to 2500 nM; against P. aeruginosa LpxC, 50 to 100 nM. The MIC in assay [1], in assay [2], in assay [3] and in assay [4] (setting [5]) was above 100 µM in each case.
Take `CC(C)C(=O)N1C[C@H](NC(=O)[C@H]2NCC[C@H]2O)C[C@@H]1C(=O)NCc1ccc(C#Cc2ccc(CN3CCOCC3)cc2)cc1` [Example 9V]: the figures for the half-inhibitory concentration (IC50) against E. coli LpxC and at P. aeruginosa LpxC were 2500 to 10000 nM and 100 to 1000 nM, respectively. Further, the MIC in assay [1], in assay [2], in assay [3] and in assay [4] (setting [5]) was above 100 µM throughout.
With `CS(=O)(=O)N1C[C@H](NC(=O)[C@@H]2C[C@H](F)CN2)C[C@@H]1C(=O)NCc1ccc(C#Cc2ccc(CN3CCOCC3)cc2)cc1` [Example 9AI, (2R,4R)-4-((2S,4S)-4-Fluoropyrrolidine-2-carboxamido)-1-(methylsulfonyl)-N-(4-((4-(morpholinomethyl)phenyl)ethynyl)benzyl)pyrrolidine-2-carboxamide], the IC50 at E. coli LpxC was below 500 nM; against P. aeruginosa LpxC, below 50 nM. For the same compound, the MIC in assay [1] was 20 to 100 µM (≈ 12.2 to 61.2 µg/mL); in assay [2], below 20 µM; in assay [3] it was above 100 µM; in assay [4] (setting [6]), above 100 µM.
Take `CN(C)C(=O)N1C[C@H](NC(=O)[C@@H]2C[C@H](F)CN2)C[C@@H]1C(=O)NCc1ccc(C#Cc2ccc(CN3CCOCC3)cc2)cc1` [Example 9AH]: the IC50 against E. coli LpxC was 500 to 2500 nM; against P. aeruginosa LpxC it was below 50 nM. Further, the minimum inhibitory concentration (MIC) in assay [1] is 20 to 100 µM (≈ 12.1 to 60.5 µg/mL); in assay [2], below 20 µM; in assay [3] it was above 100 µM; in assay [4] (setting [6]), above 100 µM.
Consider `CNC(=O)N1C[C@H](NC(=O)[C@@H]2C[C@H](F)CN2)C[C@@H]1C(=O)NCc1ccc(C#Cc2ccc(CN3CCOCC3)cc2)cc1` [Example 9AR], for which the concentration for half-maximal inhibition (IC50) is below 500 nM against E. coli LpxC and below 50 nM on P. aeruginosa LpxC. For the same compound, the minimum inhibitory concentration (MIC) in assay [1] is 20 to 100 µM (≈ 11.8 to 59.1 µg/mL); in assay [2], below 20 µM; in assay [3] it was above 100 µM; in assay [4] (setting [6]), above 100 µM.
For `N[C@H]1C[C@H](C(=O)N2C[C@H](NC(=O)[C@@H]3C[C@H](F)CN3)C[C@@H]2C(=O)NCc2ccc(C#CC#CC3CC3)cc2)C1` [Example 9AF], the results for the IC50 on E. coli LpxC and against P. aeruginosa LpxC were 500 to 2500 nM and 50 to 100 nM, respectively. In addition, the MIC in assay [1], in assay [2], in assay [3] and in assay [4] (setting [5]) was above 100 µM throughout.
As for `O=C(NC[C@H]1C[C@@H](NC(=O)[C@@H]2C[C@H](F)CN2)CN1C(=O)C1CC1)c1ccc(C#Cc2ccc(CN3CCOCC3)cc2)cc1` [Example 9AS], the IC50 against E. coli LpxC was below 500 nM; at P. aeruginosa LpxC it was below 50 nM. Moreover, the MIC is below 20 µM in assay [1], below 20 µM in assay [2], below 20 µM in assay [3] and above 100 µM in assay [4] (setting [6]).
In the case of `COC(=O)N1C[C@H](NC(=O)[C@@H]2C[C@H](F)CN2)C[C@@H]1C(=O)NCc1ccc(C#CC#CC2CC2)cc1` [Example 9R], the IC50 at E. coli LpxC was 500 to 2500 nM; against P. aeruginosa LpxC, below 50 nM. Besides, the MIC is below 20 µM in assay [1], below 20 µM in assay [2], above 100 µM in assay [3] and above 100 µM in assay [4] (setting [6]).
Consider `CC(C)C(=O)N1C[C@H](NC(=O)[C@@H]2CC(F)(F)CN2)C[C@@H]1C(=O)NCc1ccc(C#Cc2ccccc2)cc1` [Example 9C], for which the IC50 against E. coli LpxC is 500 to 2500 nM; at P. aeruginosa LpxC it was 100 to 1000 nM. In addition, the MIC is 20 to 100 µM (≈ 10.5 to 52.3 µg/mL) in assay [1], above 100 µM in assay [2], above 100 µM in assay [3] and above 100 µM in assay [4] (setting [5]).
In the case of `CC(C)C(=O)N1C[C@H](NC(=O)[C@@H]2CC(F)(F)CN2)C[C@@H]1C(=O)NCc1ccc(C#Cc2ccc(CN3CCOCC3)cc2)cc1` [Example 9F], the 50% inhibitory concentration (IC50) against E. coli LpxC fell in the range of 500 to 2500 nM; against P. aeruginosa LpxC, 50 to 100 nM. Moreover, the MIC is 20 to 100 µM (≈ 12.4 to 62.2 µg/mL) in assay [1], 20 to 100 µM (≈ 12.4 to 62.2 µg/mL) in assay [2], above 100 µM in assay [3] and above 100 µM in assay [4] (setting [5]).
`CC(C)C(=O)N1C[C@H](NC(=O)[C@@H]2C[C@@H](O)CN2)C[C@@H]1C(=O)NCc1ccc(C#CC#CC2CC2)cc1` [Example 9Z]: the MIC in assay [1] was 20 to 100 µM (≈ 9.81 to 49.1 µg/mL); in assay [2] it was 20 to 100 µM (≈ 9.81 to 49.1 µg/mL); in assay [3], above 100 µM; in assay [4] (setting [5]), above 100 µM.
Take `CC(C)C(=O)N1C[C@H](NC(=O)[C@@H]2C[C@H](F)CN2)C[C@@H]1C(=O)NCc1ccc(C#Cc2ccccc2)cc1` [Example 9A]: the MIC is 20 to 100 µM (≈ 10.1 to 50.5 µg/mL) in assay [1], 20 to 100 µM (≈ 10.1 to 50.5 µg/mL) in assay [2], above 100 µM in assay [3] and above 100 µM in assay [4] (setting [5]).
With `CC(C)C(=O)N1C[C@H](NC(=O)[C@@H]2C[C@@H](F)CN2)C[C@@H]1C(=O)NCc1ccc(C#Cc2ccccc2)cc1` [Example 9E], the MIC in assay [1], in assay [2], in assay [3] and in assay [4] (setting [5]) was above 100 µM in each case.
